# Results reported in patent EP0133795B1 (THE McLEAN HOSPITAL CORPORATION, priority 1983, dated 1985).
# Several values for one entry are separate records, joined by “and”; a condition that tells them apart may be missing. Identical values can stand only once. Entries after “also recorded” stand apart in the source; their conditions may differ.
# Assays:
# [1] = system: general motor activity of mice; experiment: General locomotor activity of mice (Stoelting electronic activity monitor); assay type: in vivo, Balb/c mice; conditions: i.p., mice
# Procedure: The effect of intraperitoneal (i.p.) injections of test compounds on the general motor activity of mice during a 60-min period was determined in a Stoelting electronic activity monitor. Dose-response curves were obtained from which the half-maximally effective values were calculated and the results are shown in Table V.
# The compounds were dissolved in 25% (vols.) propylene glycol in water and injected i.p. into Balb/c mice (18-24 g). Dose-response measurements were obtained for 6 animals per dose or time point. Activity was monitored for 60 min using a Stoelting Electronic Activity Monitor (EAM) apparatus to assess the general motor activity of the animals.
# The general locomotor activity of mice was measured in the Stolting activity monitor apparatus during 60 min after an intraperitoneal (i.p.) injection of a test compound.
# [2] = Comparative brain/liver uptake of 14C-labeled compounds (Brain Penetration Index)
# Procedure: The criterion used herein for measuring the extent to which a compound, from which the radical A is derived, crosses the blood-brain barrier is based on the uptake of this compound by the brain relative to its uptake by the liver. […] Measurements of the quantity of a compound present in brain and liver at 5 minutes after a subcutaneous (s.c.) injection were used to calculate a Brain Penetration Index (BPI), with the equation: [formula]
# This is the amount of the compound present per gram of brain tissue as a percent of the amount per gram of liver tissue.
# This procedure has the advantage that even for a sparingly soluble lipid ester, which tends to remain largely at the site of the injection and slowly diffuse into the circulation, its level in the liver will reflect the amount available rather than the initial dose injected.
# The uptake of a ^14C-labeled compound into brain was compared with the uptake into liver of the same animal.
# All determinations were carried out at 5 min after injection. The volumes of the injected doses into mice (body weight, 18-24 g) for the i.v., i.p., and s.c. doses were 0.15, 0.3 and 0.5 ml, respectively. […] Each tissue was homogenized in 8 ml of pyridine in a glass homogenizer.
# Each labeled test compound was injected as a solution in 0.5 ml of saline (Compound 7) or in 25% propylene glycol in water (Compounds 1, 5, 6) subcutaneously (s.c.) into young adult Balb/c mice (18-24 g body weight). After 5 min (or longer) animals were sacrificed and the brain and liver removed, weighed and homogenized respectively in 8 ml and 10 ml of brain protein solvent (1 % (w/v) sodium dodecyl sulfate in 6 M urea and 19 mM EDTA, pH 7.4, 0.03 M phosphate). Aliquots (0.5 ml) of the homogenates were mixed with 10 ml of Aquasol 2 (New England Nuclear) and counted in a Beckman liquid scintillation counter. The total uptake of each compound per g brain and liver tissue was calculated. The proportion of uptake into brain as compared to liver (100%) of the same animal was designated as the Brain Penetration Index (BPI), expressed as a percentage typically at 5 min after injection.
# Each of the ^14C-labeled Compounds 26, 28 and 30 were in 125 µl of the propylene glycol diluted with water up to 0.5 ml, and then injected subcutaneously into test Balb/c mice (20 ± 2 g weight). After 5 min the animals were sacrificed and the brain and liver were removed, weighed and homogenized in 8 ml and 10 ml of brain protein solvent, respectively. Next 0.5 ml aliquots were mixed with 10 ml of Aquasol 2 (New England Nuclear Corp., Boston, MA) and counted in a Beckman liquid scintillation counter. The data for the label in each tissue were used to calculate the total quantity of the compound present in brain and liver per gram of tissue. The ratio of the amount in brain as a percent of that present in liver at 5 min was taken as the Brain Penetration Index (BPI). Measurements at longer uptake times were also obtained to evaluate the accumulation of the compounds in the brain.
# [3] = target: GABA "receptors"; experiment: Inhibition of [3H]GABA binding to synaptic membranes from rat cerebellum; conditions: [3H]GABA (15 nM); synaptic membrane preparations from rat cerebellum
# Procedure: IC50 values were determined by fitting data to linearized transformations, based on including at least two concentrations of antagonists above and below the IC50, with at least triplicate replication per concentration.
# [4] = system: bicuculline-induced epileptic seizures; experiment: Delay of onset of bicuculline-induced seizures (anticonvulsant activity); assay type: in vivo, mouse; conditions: for Onset of seizures: % Saline Control / Survival Time: % Saline Control: 24 hr pretreatment, bicuculline 0.3 mg/kg
# Procedure: In a second behavioral test, the ability of a substance to prevent or delay the onset of biculline-induced epileptic seizures was measured. […] At 24 hr after i.p. injection of the cholesteryl derivative at a dose of 30 mg/kg (64 pmol/kg), the onset of seizures was delayed by 30% after an acute i.p. injection of bicuculline at 0.3 mg/kg. […] The dexamethasone and butyl esters had no effect.
# The compounds were also injected i.p. at 1, 6 and 24 hr before the administration of bicuculline (0.3 mg/kg) s.c. The latency to the onset of generalized tonic-clonic epileptic seizures and the protection against the lethality of bicuculline were measured and evaluated as a percent of the data for vehicle-injected controls. No significant changes were obtained at the 1 hr and 6 hr time points. At the 24 hr time, however, some compounds delayed while others accelerated the onset of seizures.
# The effect of the compound to delay the onset of a bicuculline-induced seizures was evaluated.
# The ability of a substance to delay the onset of bicuculline-induced epileptic seizures in the mouse was measured (Table X). […] At 24 hr after i.p. injection of the cholesteryl derivative (6) at a dose of 30 mg/kg (64 pmol/kg), the onset of seizures was delayed by 30% (as compared to saline controls) after an acute i.p. injection of bicuculline at 0.3 mg/kg. […] The dexamethasone and butyl esters had no effect on seizures in mice.
# [5] = 260 μmol/kg s.c., 5 min, mice, mean ± S.E.M. (n = 3)
compound,measurement,setting,value
"CC/C=C\C/C=C\C/C=C\CCCCCCCCOC(=O)CCCN [Compound 5, Linolenoyl Ester of y-aminobutyric Acid]",activity in the general motor activity test (in words),[1]; listed as linolenyl ester,not active
same,activity in the general motor activity test (in words),[1]; listed as linolenyl ester of GABA,insignificant effect; also recorded: no significant effect
same,(BRAIN),[2]; [5],3.5 ± 0.4 nmol/g
same,(LIVER),[2]; [5],141.7 ± 8 nmol/g
same,BPI,[2]; [5],2 ± 0.6%
same,(BRAIN),"[2]; 260 μmol/kg s.c., 15 min, mice",11.0 nmol/g
same,(LIVER),"[2]; 260 μmol/kg s.c., 15 min, mice",220.8 nmol/g
same,BPI,"[2]; 260 μmol/kg s.c., 15 min, mice",5%
same,(BRAIN),"[2]; 260 μmol/kg s.c., 45 min, mice",24.9 nmol/g
same,(LIVER),"[2]; 260 μmol/kg s.c., 45 min, mice",33.3 nmol/g
same,BPI,"[2]; 260 μmol/kg s.c., 45 min, mice",75%
same,increase of 5-min BPI over GABA,"[2]; 5 min after s.c. injection, relative to GABA",2 fold
same,BPI,"[2]; Table IX summary, 5-min Brain Penetration Index",2
same,accumulation of radioactivity in brain persisted post-injection,"[2]; s.c., mice",45 to 60 min
same,IC50,[3],40 µM
same,Onset of seizures: % Saline Control,[4]; 12 mg/kg,102 ± 4 % Saline Control
same,Survival Time: % Saline Control,[4]; 12 mg/kg,118 ± 10 % Saline Control
same,Onset of seizures: % Saline Control,[4]; 17 mg/kg,73 ± 15 % Saline Control
same,Survival Time: % Saline Control,[4]; 17 mg/kg,111 ± 14 % Saline Control
same,Onset of seizures: % Saline Control,[4]; 25 mg/kg,78 ± 9 % Saline Control
same,Survival Time: % Saline Control,[4]; 25 mg/kg,68 ± 9 % Saline Control
same,Onset of seizures: % Saline Control,[4]; 36 mg/kg,50 ± 5 % Saline Control
same,Survival Time: % Saline Control,[4]; 36 mg/kg,62 ± 6 % Saline Control
same,Onset of seizures: % Saline Control,[4]; 50 mg/kg,40 ± 11 % Saline Control
same,Survival Time: % Saline Control,[4]; 50 mg/kg,63 ± 8 % Saline Control
same,acceleration of seizure onset time,"[4]; 50 mg/kg, 24 hr, listed as linolenyl ester of GABA",70% and 60%
same,In Vivo Delay of Time of Onset of Bicuculline-induced seizures,[4]; graded 0-5,0
